Each compound was assayed against Factor D (Homo sapiens, UniProt P00746) (assay: Factor D esterolytic assay (Z-Lys-SBzl thioester substrate, DTNB, 405 nm)). Conditions: substrate Z-Lys-SBzl 1.29 mM, 100 mM HEPES, 500 mM NaCl, pH 7.5, 10% DMSO, tested a minimum of three times.
Factor D, sequence (P00746 26-253): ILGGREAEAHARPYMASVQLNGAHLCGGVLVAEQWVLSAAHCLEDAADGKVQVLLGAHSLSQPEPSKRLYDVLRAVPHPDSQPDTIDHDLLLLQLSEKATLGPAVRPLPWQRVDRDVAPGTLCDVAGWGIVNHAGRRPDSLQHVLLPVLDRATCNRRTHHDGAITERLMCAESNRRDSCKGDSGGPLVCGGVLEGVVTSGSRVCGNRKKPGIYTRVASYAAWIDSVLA
Format: biochemical
In short: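 Run in pH 7.5 HEPES (100 mM) with 500 mM NaCl and 10% DMSO, with compound preincubated at room temperature or not before adding 1.29 mM Z-Lys-SBzl. Free thiol released by Factor D reacts with DTNB, and rate is followed at 405 nm minus 690 nm over 600 s. IC50 derives from rate-based inhibition, minimum three replicates.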
`Cc1cc(C(F)(F)F)cc2c3c(N)ncnc3n(CC(=O)N3[C@H](C(=O)Nc4cccc(Br)n4)C[C@@]4(C)C[C@@H]34)c12` [Compound 184g, (1R,3S,5R)-2-(2-(4-amino-8-methyl-6-(trifluoromethyl)-9H-pyrimido[4,5-b]indol-9-yl)acetyl)-N-(6-bromopyridin-2-yl)-5-methyl-2-azabicyclo[3.1.0]hexane-3-carboxamide] gave an IC50 of under 100 nM. Work on `CC(=O)Nc1ccc2c(c1)c1c(N)ncnc1n2CC(=O)N1[C@H](C(=O)Nc2cccc(Br)n2)C[C@@]2(C)C[C@@H]12` [Compound 185a, (1R,3S,5R)-2-(2-(6-acetamido-4-amino-9H-pyrimido[4,5-b]indol-9-yl)acetyl)-N-(6-bromopyridin-2-yl)-5-methyl-2-azabicyclo[3.1.0]hexane-3-carboxamide] yielded an IC50 of under 100 nM. With `C[C@@]12C[C@@H](C(=O)Nc3cccc(Br)n3)N(C(=O)Cn3c4ncnc(N)c4c4cccc(Br)c43)[C@@H]1C2` [Compound 186a, (1R,3S,5R)-2-(2-(4-amino-8-bromo-9H-pyrimido[4,5-b]indol-9-yl)acetyl)-N-(6-bromopyridin-2-yl)-5-methyl-2-azabicyclo[3.1.0]hexane-3-carboxamide] the IC50 was under 100 nM. `CCc1ccc2c(c1)c1c(N)ncnc1n2CC(=O)N1[C@@H]2C[C@@H]2C[C@H]1C(=O)Nc1cccc(Br)n1` [Compound 187c, (1R,3S,5R)-2-(2-(4-amino-6-ethyl-9H-pyrimido[4,5-b]indol-9-yl)acetyl)-N-(6-bromopyridin-2-yl)-2-azabicyclo[3.1.0]hexane-3-carboxamide] showed an IC50 of under 100 nM. With `Nc1ncnc2c1c1cc([N+](=O)[O-])ccc1n2CC(=O)N1[C@@H]2C[C@@H]2C[C@H]1C(=O)Nc1cccc(Br)n1` [Compound 188g, (1R,3S,5R)-2-(2-(4-amino-6-nitro-9H-pyrimido[4,5-b]indol-9-yl)acetyl)-N-(6-bromopyridin-2-yl)-2-azabicyclo[3.1.0]hexane-3-carboxamide] the IC50 was under 100 nM. `Cc1cc(C)c2c(c1)c1c(N)ncnc1n2CC(=O)N1[C@@H]2C[C@@H]2C[C@H]1C(=O)Nc1cccc(Br)n1` [Compound 189g, (1R,3S,5R)-2-(2-(4-amino-6,8-dimethyl-9H-pyrimido[4,5-b]indol-9-yl)acetyl)-N-(6-bromopyridin-2-yl)-2-azabicyclo[3.1.0]hexane-3-carboxamide] showed an IC50 of under 100 nM. `CCOC(=O)CCc1ccc2c(c1)c1c(N)ncnc1n2CC(=O)N1[C@H](C(=O)Nc2cccc(Br)n2)C[C@@]2(C)C[C@@H]12` [Compound 190a, ethyl 3-(4-amino-9-(2-((1R,3S,5R)-3-((6-bromopyridin-2-yl)carbamoyl)-5-methyl-2-azabicyclo[3.1.0]hexan-2-yl)-2-oxoethyl)-9H-pyrimido[4,5-b]indol-6-yl)propanoate] showed an IC50 of under 100 nM. In the case of `Cc1cc(C)c2c(c1)c1c(N)ncnc1n2CC(=O)N1[C@H](C(=O)Nc2cccc(Br)n2)C[C@@]2(C)C[C@@H]12` [Compound 191a, (1R,3S,5R)-2-(2-(4-amino-6,8-dimethyl-9H-pyrimido[4,5-b]indol-9-yl)acetyl)-N-(6-bromopyridin-2-yl)-5-methyl-2-azabicyclo[3.1.0]hexane-3-carboxamide], the IC50 is reported as under 100 nM. `Cc1cc(Br)cc2c3c(N)ncnc3n(CC(=O)N3[C@@H]4C[C@@H]4C[C@H]3C(=O)Nc3cccc(Br)n3)c12` [Compound 192g, (1R,3S,5R)-2-(2-(4-amino-6-bromo-8-methyl-9H-pyrimido[4,5-b]indol-9-yl)acetyl)-N-(6-bromopyridin-2-yl)-2-azabicyclo[3.1.0]hexane-3-carboxamide] was tested, and the IC50 was under 100 nM. Work on `Cc1cc(Br)cc2c3c(N)ncnc3n(CC(=O)N3[C@H](C(=O)Nc4cccc(Br)n4)C[C@@]4(C)C[C@@H]34)c12` [Compound 193a, (1R,3S,5R)-2-(2-(4-amino-6-bromo-8-methyl-9H-pyrimido[4,5-b]indol-9-yl)acetyl)-N-(6-bromopyridin-2-yl)-5-methyl-2-azabicyclo[3.1.0]hexane-3-carboxamide] yielded an IC50 of under 100 nM. `Cc1cc(C(F)(F)F)cc2c3c(N)ncnc3n(CC(=O)N3[C@@H]4C[C@@H]4C[C@H]3C(=O)Nc3cccc(Br)n3)c12` [Compound 194a, (1R,3S,5R)-2-(2-(4-amino-8-methyl-6-(trifluoromethyl)-9H-pyrimido[4,5-b]indol-9-yl)acetyl)-N-(6-bromopyridin-2-yl)-2-azabicyclo[3.1.0]hexane-3-carboxamide] was tested, and the IC50 was under 100 nM. `Nc1ncnc2c1c1cc(CO)ccc1n2CC(=O)N1[C@@H]2C[C@@H]2C[C@H]1C(=O)Nc1cccc(Br)n1` [Compound 195e, (1R,3S,5R)-2-(2-(4-amino-6-(hydroxymethyl)-9H-pyrimido[4,5-b]indol-9-yl)acetyl)-N-(6-bromopyridin-2-yl)-2-azabicyclo[3.1.0]hexane-3-carboxamide] was tested, and the IC50 was under 100 nM. Compound `CNC(=O)c1ccc2c(c1)c1c(N)ncnc1n2CC(=O)N1[C@H](C(=O)Nc2cccc(Br)n2)C[C@@]2(C)C[C@@H]12` [Compound 196d, 4-amino-9-(2-((1R,3S,5R)-3-((6-bromopyridin-2-yl)carbamoyl)-5-methyl-2-azabicyclo[3.1.0]hexan-2-yl)-2-oxoethyl)-N-methyl-9H-pyrimido[4,5-b]indole-6-carboxamide] has an IC50 of under 100 nM. Work on `Cc1ccccc1-c1ccc2c(c1)c1c(N)ncnc1n2CC(=O)N1[C@@H]2C[C@@H]2C[C@H]1C(=O)Nc1cccc(Br)n1` [Compound 197c, (1R,3S,5R)-2-(2-(4-amino-6-(o-tolyl)-9H-pyrimido[4,5-b]indol-9-yl)acetyl)-N-(6-bromopyridin-2-yl)-2-azabicyclo[3.1.0]hexane-3-carboxamide] yielded an IC50 of under 100 nM. Work on `C[C@@]12C[C@@H](C(=O)Nc3cccc(Br)n3)N(C(=O)Cn3c4ncnc(N)c4c4cccc(F)c43)[C@@H]1C2` [Compound 198a, (1R,3S,5R)-2-(2-(4-amino-8-fluoro-9H-pyrimido[4,5-b]indol-9-yl)acetyl)-N-(6-bromopyridin-2-yl)-5-methyl-2-azabicyclo[3.1.0]hexane-3-carboxamide] yielded an IC50 of under 100 nM. In the case of `C[C@@]12C[C@@H](C(=O)Nc3cccc(Br)n3)N(C(=O)Cn3c4cc(C(F)(F)F)ccc4c4c(N)ncnc43)[C@@H]1C2` [Compound 199a, (1R,3S,5R)-2-(2-(4-amino-7-(trifluoromethyl)-9H-pyrimido[4,5-b]indol-9-yl)acetyl)-N-(6-bromopyridin-2-yl)-5-methyl-2-azabicyclo[3.1.0]hexane-3-carboxamide], the IC50 is reported as under 100 nM. Compound `C[C@@]12C[C@@H](C(=O)Nc3cccc(Br)n3)N(C(=O)Cn3c4cc(Br)ccc4c4c(N)ncnc43)[C@@H]1C2` [Compound 200a, (1R,3S,5R)-2-(2-(4-amino-7-bromo-9H-pyrimido[4,5-b]indol-9-yl)acetyl)-N-(6-bromopyridin-2-yl)-5-methyl-2-azabicyclo[3.1.0]hexane-3-carboxamide] has an IC50 of under 100 nM. Work on `Nc1ncnc2c1c1cc(C(F)(F)F)ccc1n2CC(=O)N1C[C@H](N)C[C@H]1C(=O)Nc1cccc(Br)n1` [Compound 201e, (2S,4R)-4-amino-1-(2-(4-amino-6-(trifluoromethyl)-9H-pyrimido[4,5-b]indol-9-yl)acetyl)-N-(6-bromopyridin-2-yl)pyrrolidine-2-carboxamide] yielded an IC50 of 100 to 1000 nM. `C[C@@]12C[C@@H](C(=O)Nc3cccc(Br)n3)N(C(=O)Cn3c4ccc([N+](=O)[O-])cc4c4c(N)ncnc43)[C@@H]1C2` [Compound 202a, (1R,3S,5R)-2-(2-(4-amino-6-nitro-9H-pyrimido[4,5-b]indol-9-yl)acetyl)-N-(6-bromopyridin-2-yl)-5-methyl-2-azabicyclo[3.1.0]hexane-3-carboxamide] was tested, and the IC50 was under 100 nM.

Source: patent US12679843B2, “Pyrrolopyrimidine amines as complement inhibitors” (BioCryst Pharmaceuticals, Inc., priority 2020, dated 2026)
